The text below walks through data of ChEMBL document CHEMBL5032532, “Synthesis of xanthosine 2-phosphate diesters via phosphitylation of the carbonyl group” (Bioorg Med Chem Lett, 2021).

Data set [1] can be described thus: Chemical stability in human serum assessed as compound hydrolysis at 20 mM measured upto 8 hrs by RP-HPLC analysis. Type of data set: physicochemical, cell-free. The settings on record: 20000 µM.
Data set [2] in a line: Chemical stability in PBS buffer at pH 6.8 assessed as compound hydrolysis at 20 mM measured after 7 hrs by RP-HPLC analysis. Type of data set: physicochemical. The settings on record: read-out: Drug degradation.
Data set [3] in a line: Chemical stability in PBS buffer at pH 11.1 assessed as compound hydrolysis at 20 mM measured upto 8 hrs by RP-HPLC analysis. In kind it is physicochemical. The settings on record: pH 11.1, 8 h, 20000 µM.
Data set [4] in a line: Chemical stability in PBS buffer at pH 4.8 assessed as compound hydrolysis at 20 mM measured after 7 hrs by RP-HPLC analysis. In kind it is physicochemical. The settings on record: read-out: Drug degradation.

As to `CCN(CC)CC.O=c1[nH]c(OP(=O)(O)Oc2ccccc2)nc2c1ncn2[C@@H]1O[C@H](CO)[C@@H](O)[C@H]1O`, the Stability result in data set [1] is reported as “Unstable”; in data set [3], “Stable”. The degraded at 7 h, 20000 µM in data set [2] stood at 40%; in data set [4], 50%.
